Measured values: patent US9193715B2, “Regulation of cholesterol homeostasis” (University of Notre Dam du Lac, priority 2012, dated 2015)

How the values were obtained:
[1] = test system: NPC1-mutant human fibroblasts (GM03123); experiment: Filipin fluorescent imaging of intracellular cholesterol in NPC1-mutant human fibroblasts; type: cell-based
Experimental: GEX1A was evaluated for its ability to lower intracellular cholesterol levels in NPC1-mutant human fibroblasts (GM03123) through a previously described fluorescent imaging method (Pipalia et al., Automated microscopy screening for compounds that partially revert cholesterol accumulation in Niemann-Pick C cells. J. Lipid Res. (2006) 47: 284-301.).
Compounds described herein were evaluated for their ability to lower intracellular cholesterol levels in NPC1-mutant human fibroblasts (GM03123) by the fluorescent imaging methods of Pipalia and coworkers.

human endothelial cells = experiment: Filipin staining of cholesterol in itraconazole-induced NPC-like phenotype; type: cell-based
Experimental: Itraconazole, an anti-fungal agent, interferes with cholesterol trafficking and induces an NPC-like phenotype in human endothelial cells. Itraconazole (200 nM) was administered in two experiments with 100 nM GEX1A and 10 nM GEX1A, respectively. Filipin is used as a histochemical stain to visualize cholesterol in the cell line.

SMILES | correction of the NPC1 phenotype ([1]; 10 nM to 100 nM, time points of 24-72 hours, postulated) | correction of the NPC1 phenotype (filipin staining in the cell) ([1]; GM03123 cells, fluorescent imaging, FIG. 2) | potency in the classic filipin assay relative to HDAC inhibitors ([1]; NPC cells, preliminary studies) | amount of cholesterol in cell line (filipin stain) (human endothelial cells; 10 nM GEX1A with itraconazole 200 nM) | amount of cholesterol in cell line (filipin stain) (human endothelial cells; 100 nM GEX1A with itraconazole 200 nM) | IC50 (human endothelial cells; Homo sapiens, Endothelial cell, filipin cholesterol staining, itraconazole 200 nM)
CC[C@H](O)[C@@H](C)[C@H]1O[C@@H]1C[C@H](C)/C=C/C=C(\C)[C@H]1OC(=O)C[C@H](O)CC[C@@](C)(O)[C@@H](OC(C)=O)/C=C/[C@@H]1C [Pladienolide, pladienolide B] | significant correction of the NPC1 phenotype | – | – | – | – | –
CO[C@H]([C@@H](C)[C@H]1OC1(C)C[C@H](C)/C=C/C=C(\C)[C@H]1O[C@@H](CC(=O)O)CC[C@@H]1C)[C@@H](C)O (stereo partly drawn) [GEX1A] | – | correction of the NPC1 phenotype | equipotent to HDAC inhibitors | significant decrease | significant decrease | 6 nM
